The text below walks through data of patent US3939263A, “Methods of combatting insects and acarina using oxygenated derivatives of S-(tert-bulythio)methyl O,O-diethyl phosphorodithioate and phosphorothioate” (priority 1974, dated 1976).

One assay relates to Tarnished Plant Bug. In words: Tarnished Plant Bug, treated cotton leaf, 2-day mortality. The format is in vivo, Lygus Lineolaris (Palisot de Beauvois). The conditions noted are these: Lygus lineolaris, 48 h, 2 days, read-out: % Kill, Tarnished Plant Bug. As for the experimental part:
Tarnished Plant Bug -- Lygus Lineolaris (Palisot de Beauvois)
A cotton plant with two true leaves expanded is dipped for 3 seconds with agitation in a 35/65% water/acetone mixture containing 100 ppm. of test compound and set in the hood to dry. One leaf is removed and placed in an 8-ounce waxed cup containing a wet 2-inch dental wick and 10 adult tarnished plant bugs, and a clear plastic lid is snapped on. After 2 days at 80°F., 50% r.h., mortality counts are made.

In assay [1] the test system is Cotton Boll Weevil. In words: Cotton Boll Weevil, treated cotton cotyledon, 2-day mortality. The format is in vivo, Anthonomus grandis Boheman. The following applies: 48 h, 2 days, read-out: % Kill, Cotton Boll Weevil. As for the experimental part:
Cotton Boll Weevil -- Anthonomus grandis Boheman
A cotton plant with cotyledons expanded is dipped for 3 seconds with agitation in 35/65% aqueous acetone mixture containing 100 ppm. of test compound and set in the hood to dry. One cotyledon is removed from the plant and placed in a 4-inch petri dish containing a moist filter paper on the bottom and 10 adult weevils. After 2 days at 80°F., and 50% r.h., mortality counts are made, prodding each insect to distinguish dead ones from those "playing dead."

The subject of the next assay is Two-Spotted Spider Mite. As to the kind of experiment: Two-Spotted Spider Mite, dipped infested lima bean plants. The conditions noted are these: Tetranychus urticae, read-out: % Kill, Two-Spotted Spider Mite. The format is in vivo, Tetranychus urticae (Koch). As for the experimental part: Two-Spotted Spider Mite -- Tetranychus urticae (Koch)
Sieva lima bean plants, with primary leaves 3 to 4 inches long, are infested with about 100 adult mites per leaf 4 hours before use in this test, in order to allow egg-laying before treatment. The infested plants are dipped for 3 seconds with agitation into a 35/65% water/acetone mixture containing 1000 ppm. of test compound and the plants set in the hood to dry. After 2 days at 80°F., and 50% r.h., the adult mite mortality is estimated on one leaf under a 10X stereoscopic microscope. The other leaf is left on the plant an additional 5 days and then examined at 10X power to estimate the kill of eggs and of newly hatched nymphs, giving a measure of ovicidal and residual action, respectively.

In assay [2] the test system is Southern Armyworm. As to the kind of experiment: Southern Armyworm, dipped lima bean leaf. It counts as in vivo, Spodoptera eridania (Cramer). The following applies: Spodoptera eridania, 48 h, 2 days, read-out: % Kill, Southern Armyworm. As for the experimental part:
Southern Armyworm -- Spodoptera eridania (Cramer)
A Sieva lima bean plant with just the primary leaves expanded to 3 to 4 inches is dipped for 3 seconds with agitation in a 35/65% water/acetone mixture containing 1000 ppm. of test compound and set in the hood to dry. Following this, one leaf is placed in a 4-inch petri dish which has a moist filter paper in the bottom and ten third-instar armyworm larvae about three-eighths inch long. The dish is covered and held at 80°F., and 50% r.h. After 2 days, mortality counts and estimates of the amount of feeding are made. Compounds showing partial kill and/or inhibition of feeding are held for an extra day for further observations.

Assay [3] has as its system Southern Armyworm. In words: Soil Systemic Insecticide test on corn, Southern Armyworm. The conditions noted are these: Spodoptera eridania, 48 h; 100 ppm in soil; corn foliage after three weeks; 2 days; read-out: % Kill, Systemic Insecticide, Southern Armyworm. It counts as in vivo, Spodoptera eridania Cramer. As to the method:
(§1) Soil Systemic Insecticide Tests
(§2) Corn and cotton seed (three seeds each) are planted in treated soil (containing about 100 ppm. of the compound). Thirty milliliters of treated soil are placed in a peat container 5 × 5 × 5.5 cm., and three seeds each of corn and cotton planted. The containers are filled with an additional 30 ml. of treated soil. The treatments are removed to the greenhouse maintained about 26°C. without supplementary light. Water is supplied as needed. After three weeks, foliage of the corn is clipped and placed in glass petri dishes (90 mm. × 10 mm.) with moist filter (9 cm. Whatman No. 1) paper and ten third-instar southern armyworm (Spodoptera eridania Cramer) larvae about 8 mm. long. The dishes are covered and placed in the holding room with constant light at 26.7°C. and 60% r.h. for 2 days, when mortality counts are made.

For assay [4], the system named is Cotton Boll Weevil. As to the kind of experiment: Soil Systemic Insecticide test on cotton, Cotton Boll Weevil. The format is in vivo, Anthonomus grandis Boheman. The conditions noted are these: 48 h; 100 ppm in soil; cotton leaves after three weeks; 2 days; read-out: % Kill, Systemic Insecticide, Cotton Boll Weevil. As to the method:
as §1, §2
The cotyledonary leaves of the cotton are clipped after three weeks and placed in glass petri dishes (90 mm. × 10 mm.) with moist filter (9 cm. Whatman No. 1) paper and ten adult boll weevils (Anthonomus grandis Boheman). The dishes are covered, placed in the holding room with constant light at 26.7°C. and 60% r.h. for 2 days, when mortality counts are made.

For a further assay, the system named is Malaria Mosquito. As to the kind of experiment: Malaria Mosquito adult test, treated slide. The format is in vivo, Anopheles quadrimaculatus Say. The conditions noted are these: Anopheles quadrimaculatus, 24 h, adults, one day, read-out: % Kill, Malaria Mosquito. As to the method: Malaria Mosquito -- Anopheles quadrimaculatus Say -- Adult Test
Ten ppm. acetone solutions of test compounds are poured into wide-mouth 2-ounce jars each containing a microscope slide. The slides are removed from the test solution with forceps and laid horizontally to dry on a wide-mouth 4-ounce bottle. When dry, they are placed in the same 4-ounce bottle and 10 4-to 5-day-old mosquitoes of mixed sexes are added to each bottle. A piece of cotton gauze held on by an elastic band serves as a lid and wad of cotton soaked in 10% honey solution serves as food. Mortality counts are made after one day at 80°F., 50% r.h.

For the next assay, the system named is Bean Aphid. As to the kind of experiment: Bean Aphid, sprayed nasturtium plants. It counts as in vivo, Aphis fabae Scopoli. The following applies: Aphis fabae, 24 h, one day, read-out: % Kill, Bean Aphid. As to the method:
Bean Aphid -- Aphis fabae Scopoli
Two-inch fiber pots, each containing a nasturtium plant 2 inches high and infested with 100 to 150 aphids 2 days earlier are placed on a 4 […] an Atomizer at 20 psi. air pressure. The spray tip is held about 6 inches from the plants and the spray directed so as to give complete coverage of the aphids and the plants. The sprayed plants are laid on their sides on white enamel trays. Mortality estimates are made after one day at 70°F., 50% r.h.

Assay [5] relates to Boophilus microplus ticks. In words: Tick larvae, simulated spray in pipette. It counts as in vivo. The conditions noted are these: Rhipicephalus microplus, 48 hours, read-out: % Kill, Ticks. As for the experimental part:
Ticks -- Boophilus microplus
In these tests, 20 larvae are enclosed in a pipette sealed at one end with a gauze material. A 10% acetone/water solution with the drug in it is then sucked through the pipette with a vacuum hose, thus simulating a spray system. The ticks are then held for 48 hours and mortality is determined.

On to `CCOP(=S)(OCC)SCS(=O)(=O)C(C)(C)C` [O,O-diethyl S-(tert-butylsulfonyl)methyl Phosphorodithioate], for which the mortality at 100 ppm in the assay on Tarnished Plant Bug stood at 100%; in the assay with Cotton Boll Weevil [1] it was 90%; in the assay with Two-Spotted Spider Mite it was 100%; in the assay with Southern Armyworm [2], 100%; with Southern Armyworm [3], 0%; with Cotton Boll Weevil [4] it was 90%. For the same compound, the mortality at 100 ppm with Bean Aphid amounted to 100%. Further, the mortality at 1000 ppm in the assay with Two-Spotted Spider Mite and in the assay on Southern Armyworm [2] was 100% throughout. Besides, the mortality at 1 ppm in the assay with Malaria Mosquito is 50%; with Bean Aphid, 100%. For the same compound, the mortality at 10 ppm in the assay on Malaria Mosquito and in the assay on Bean Aphid was 100% each time.

For the compound `CCOP(=S)(OCC)SC[S+]([O-])C(C)(C)C` (stereo not drawn) [O,O-diethyl S-(tert-butylsulfinyl)methyl phosphorodithioate, reference compound], the mortality at 100 ppm with Tarnished Plant Bug stood at 100%; with Cotton Boll Weevil [1], 100%; with Two-Spotted Spider Mite, 100%; with Southern Armyworm [2], 70%; in the assay on Southern Armyworm [3], 100%; in the assay on Cotton Boll Weevil [4], 100%. In addition, in the assay on Bean Aphid, the mortality at 100 ppm amounted to 100%. In addition, the mortality at 1000 ppm in the assay on Two-Spotted Spider Mite and in the assay on Southern Armyworm [2] was 100% each time. Further, the mortality at 1 ppm in the assay with Malaria Mosquito stood at 0%; in the assay with Bean Aphid, 100%. Also, the results for the mortality at 10 ppm in the assay with Malaria Mosquito and in the assay on Bean Aphid were 80% and 100%, respectively. For the same compound, in assay [5], the mortality at 33 ppm was 0%.

Consider `CCOP(=O)(OCC)SCS(=O)(=O)C(C)(C)C` [O,O-diethyl S-(tert-butylsulfonyl)methyl Phosphorothioate], for which the mortality at 100 ppm turned out to be 100% in the assay on Tarnished Plant Bug; 90% in the assay on Cotton Boll Weevil [1]; 100% in the assay with Two-Spotted Spider Mite; 100% in the assay on Southern Armyworm [2]; 100% with Southern Armyworm [3]; 100% in the assay with Cotton Boll Weevil [4]. Further, the mortality at 100 ppm in the assay with Bean Aphid was found to be 100%. Further, the mortality at 1000 ppm in the assay with Two-Spotted Spider Mite and in the assay with Southern Armyworm [2] was 100% throughout. For the same compound, the mortality at 1 ppm in the assay on Malaria Mosquito was 0%; in the assay with Bean Aphid it was 100%. Moreover, the figures for the mortality at 10 ppm with Malaria Mosquito and with Bean Aphid were 50% and 100%, respectively. Also, the mortality at 33 ppm in assay [5] was 0%.

Turning to `CCOP(=O)(OCC)SC[S+]([O-])C(C)(C)C` (stereo not drawn) [O,O-diethyl S-(tert-butylsulfinyl)methyl Phosphorothioate], the mortality at 100 ppm with Tarnished Plant Bug turned out to be 100%; in the assay on Cotton Boll Weevil [1], 90%; in the assay with Two-Spotted Spider Mite it was 100%; in the assay with Southern Armyworm [2] it was 100%; with Southern Armyworm [3], 100%; in the assay with Cotton Boll Weevil [4], 100%. Moreover, the mortality at 100 ppm (with Bean Aphid; in assay [5] (100 ppm)) was 100% each time. The mortality at 1000 ppm with Two-Spotted Spider Mite and in the assay with Southern Armyworm [2] was 100% in each case. For the same compound, the mortality at 1 ppm in the assay on Malaria Mosquito was determined as 40%; in the assay on Bean Aphid it was 100%. In addition, the mortality at 10 ppm in the assay on Malaria Mosquito and with Bean Aphid was 100% in each case.
